Reference: ChEMBL document CHEMBL5154818, “Development of oxoisoaporphine derivatives with topoisomerase I inhibition and reversal of multidrug resistance in breast cancer MCF-7/ADR cells” (Eur J Med Chem, 2022)
Activity calls are given as the source filed them. No cut-off for these calls is given here.

Key:
HepG2 = assay: Antiproliferative activity against human HepG2 cells after 48 hrs by MTT assay; assay type: functional, cell-based; settings: HepG2, 48 h
MCF7 [1] = assay: Induction of apoptosis in human MCF7 cells assessed as late apoptotic cells at 2 to 8 uM incubated for 48 hrs by Annexin V-FITC/propidium iodide staining based flow cytometry analysis; assay type: functional; settings: dose 2-8 µM
MCF7 [2] = assay: Antitumor activity against human MCF7 cells xenografted in Balb/c nude mouse assessed as tumor growth inhibition at 10 mg/kg, ip administered 3 times a week for 3 weeks; assay type: functional; settings: MCF7, 504 h, read-out: TGI
[3] = Toxicity in BALB/c nude mouse xenografted with human MCF7 cells assessed as kidney tissue damage at 1 to 10 mg/kg, ip administered 3 times a week for 3 weeks; assay type: organism-based; settings: in vivo, 504 h, dose 1-10 mg/kg
[4] = Toxicity in BALB/c nude mouse xenografted with human MCF7 cells assessed as liver tissue damage at 1 to 10 mg/kg, ip administered 3 times a week for 3 weeks; assay type: organism-based; settings: in vivo, 504 h, dose 1-10 mg/kg
MCF7 [5] = assay: Induction of cell cycle arrest in human MCF7 cells assessed accumulation of cells at G1 phase at 8 uM measured after 48 hrs by propidium iodide staining based flow cytometric analysis (reference value: 45.94%); assay type: functional
MCF7 [6] = assay: Induction of cell cycle arrest in human MCF7 cells assessed accumulation of cells at G2 phase at 8 uM measured after 48 hrs by propidium iodide staining based flow cytometric analysis (reference value: 37.81%); assay type: functional
NCI/ADR-RES [7] = assay: Induction of apoptosis in human MCF7/ADR cells assessed as increase intracellular ROS level at 0.1 uM measured by DCFH-DA dye based flow cytometric analysis; assay type: functional, cell-based
Danio rerio = species: Danio rerio; assay: Induction of apoptosis in zebrafish embryo assessed as increase intracellular ROS level at 0.01 to 1 uM measured by DCFH-DA dye based flow cytometric analysis; assay type: functional, organism-based; settings: dose 0.01-1 µM
[8] = Toxicity in BALB/c nude mouse xenografted with human MCF7 cells assessed as lung tissue damage at 1 to 10 mg/kg, ip administered 3 times a week for 3 weeks; assay type: organism-based; settings: in vivo, 504 h, dose 1-10 mg/kg
MCF7 [9] = assay: Induction of cell cycle arrest in human MCF7 cells assessed accumulation of cells at G2 phase at 4 uM measured after 48 hrs by propidium iodide staining based flow cytometric analysis (reference value: 37.81%); assay type: functional
NCI/ADR-RES [10] = assay: Induction of apoptosis in human MCF7/ADR cells assessed as increase in Bax expression at 5 to 20 uM measured after 24 hrs by Western blotting analysis; assay type: functional, cell-based; settings: dose 5-20 µM
NCI/ADR-RES [11] = assay: Antiproliferative activity against human MCF7/ADR cells after 48 hrs by MTT assay; assay type: functional, cell-based
[12] = Toxicity in BALB/c nude mouse xenografted with human MCF7 cells assessed as heart tissue damage at 1 to 10 mg/kg, ip administered 3 times a week for 3 weeks; assay type: organism-based; settings: in vivo, 504 h, dose 1-10 mg/kg
MCF7 [13] = assay: Induction of apoptosis in human MCF7 cells assessed as increase in cleaved caspase-3 expression 1.5 to 6 uM incubated for 24 hrs by Western blotting analysis; assay type: functional, cell-based; settings: dose 1.5-6 µM
MCF7 [14] = assay: Induction of apoptosis in human MCF7 cells assessed as early apoptotic cells at 2 to 8 uM incubated for 48 hrs by Annexin V-FITC/propidium iodide staining based flow cytometry analysis; assay type: functional; settings: dose 2-8 µM
NCI/ADR-RES [15] = assay: Induction of apoptosis in human MCF7/ADR cells assessed as decrease in Bcl-2 expression at 5 to 20 uM measured after 24 hrs by Western blotting analysis; assay type: functional, cell-based; settings: dose 5-20 µM
NCI/ADR-RES [16] = assay: Induction of apoptosis in human MCF7/ADR cells assessed as increase in Bad expression at 5 to 20 uM measured after 24 hrs by Western blotting analysis; assay type: functional, cell-based; settings: dose 5-20 µM
Calf thymus DNA [17] = assay: Binding affinity to calf thymus DNA assessed as hypochromicity at 20 uM measured by UV-vis absorption spectroscopy; assay type: nucleic-acid assay; settings: Bos taurus
MCF7 [18] = assay: Induction of cell cycle arrest in human MCF7 cells assessed accumulation of cells at G1 phase at 2 uM measured after 48 hrs by propidium iodide staining based flow cytometric analysis (reference value: 45.94%); assay type: functional
Calf thymus DNA [19] = assay: Binding affinity to calf thymus DNA assessed as red shift in absorption spectra at 20 uM by UV-vis absorption spectroscopy; assay type: nucleic-acid assay; settings: Bos taurus
MCF7 [20] = assay: Antiproliferative activity against human MCF7 cells after 48 hrs by MTT assay; assay type: functional, cell-based; settings: MCF7, 48 h
L02 = assay: Antiproliferative activity against human L02 cells after 48 hrs by MTT assay; assay type: functional, cell-based; settings: L02, 48 h
MCF7 [21] = assay: Antitumor activity against human MCF7 cells xenografted in Balb/c nude mouse assessed as tumor growth inhibition at 1 mg/kg, ip administered 3 times a week for 3 weeks; assay type: functional; settings: MCF7, 504 h, read-out: TGI
MCF7 [22] = assay: Antiproliferative activity against human MCF7 cells assessed as growth inhibition at 3 uM after 48 hrs by MTT assay relative to control; assay type: functional; settings: read-out: GI
[23] = biological target: ATP-dependent translocase ABCB1 (Homo sapiens, UniProt P08183); assay: Inhibition of P-gp-mediated multidrug resistance in human MCF7/ADR cells assessed as decrease in P-gp expression at 20 uM measured after 24 hrs by Western blot analysis; assay type: cell-based; settings: NCI/ADR-RES
NCI/ADR-RES [24] = assay: Induction of apoptosis in human MCF7/ADR cells assessed as increase in apoptotic rate at 2 to 8 uM measured after 48 hrs by Annexin V-FITC/propidium iodide staining based flow cytometry analysis; assay type: functional; settings: dose 2-8 µM
[25] = biological target: T1, DNA topoisomerase 1 (Homo sapiens) (UniProt P11387); assay: Inhibition of human DNA topoisomerase 1 assessed as reduction in pBR322 DNA relaxation at 50 to 100 uM measured by gel electrophoresis method; settings: dose 50-100 µM
T1 sequence (whole entry): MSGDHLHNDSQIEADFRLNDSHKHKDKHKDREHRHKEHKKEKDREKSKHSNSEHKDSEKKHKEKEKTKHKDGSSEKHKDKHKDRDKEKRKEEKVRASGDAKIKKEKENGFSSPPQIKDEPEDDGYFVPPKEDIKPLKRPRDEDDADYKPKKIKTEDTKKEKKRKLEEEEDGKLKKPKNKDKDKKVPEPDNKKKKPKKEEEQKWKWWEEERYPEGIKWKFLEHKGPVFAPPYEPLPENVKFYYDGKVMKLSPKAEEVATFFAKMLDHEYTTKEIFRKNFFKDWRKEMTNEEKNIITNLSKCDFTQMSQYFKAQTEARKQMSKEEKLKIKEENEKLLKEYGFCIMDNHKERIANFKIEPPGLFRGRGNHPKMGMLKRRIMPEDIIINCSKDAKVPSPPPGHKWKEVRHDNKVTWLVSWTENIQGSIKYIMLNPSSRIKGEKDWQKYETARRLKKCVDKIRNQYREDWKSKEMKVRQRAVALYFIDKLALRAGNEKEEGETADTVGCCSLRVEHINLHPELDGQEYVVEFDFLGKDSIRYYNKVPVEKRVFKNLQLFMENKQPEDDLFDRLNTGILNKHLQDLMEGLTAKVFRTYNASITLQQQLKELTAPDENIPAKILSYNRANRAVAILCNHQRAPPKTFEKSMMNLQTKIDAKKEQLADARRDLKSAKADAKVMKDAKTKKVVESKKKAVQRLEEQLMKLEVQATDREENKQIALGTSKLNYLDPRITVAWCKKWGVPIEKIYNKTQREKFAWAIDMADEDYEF

Sequence of ATP-dependent translocase ABCB1 (P08183 whole entry): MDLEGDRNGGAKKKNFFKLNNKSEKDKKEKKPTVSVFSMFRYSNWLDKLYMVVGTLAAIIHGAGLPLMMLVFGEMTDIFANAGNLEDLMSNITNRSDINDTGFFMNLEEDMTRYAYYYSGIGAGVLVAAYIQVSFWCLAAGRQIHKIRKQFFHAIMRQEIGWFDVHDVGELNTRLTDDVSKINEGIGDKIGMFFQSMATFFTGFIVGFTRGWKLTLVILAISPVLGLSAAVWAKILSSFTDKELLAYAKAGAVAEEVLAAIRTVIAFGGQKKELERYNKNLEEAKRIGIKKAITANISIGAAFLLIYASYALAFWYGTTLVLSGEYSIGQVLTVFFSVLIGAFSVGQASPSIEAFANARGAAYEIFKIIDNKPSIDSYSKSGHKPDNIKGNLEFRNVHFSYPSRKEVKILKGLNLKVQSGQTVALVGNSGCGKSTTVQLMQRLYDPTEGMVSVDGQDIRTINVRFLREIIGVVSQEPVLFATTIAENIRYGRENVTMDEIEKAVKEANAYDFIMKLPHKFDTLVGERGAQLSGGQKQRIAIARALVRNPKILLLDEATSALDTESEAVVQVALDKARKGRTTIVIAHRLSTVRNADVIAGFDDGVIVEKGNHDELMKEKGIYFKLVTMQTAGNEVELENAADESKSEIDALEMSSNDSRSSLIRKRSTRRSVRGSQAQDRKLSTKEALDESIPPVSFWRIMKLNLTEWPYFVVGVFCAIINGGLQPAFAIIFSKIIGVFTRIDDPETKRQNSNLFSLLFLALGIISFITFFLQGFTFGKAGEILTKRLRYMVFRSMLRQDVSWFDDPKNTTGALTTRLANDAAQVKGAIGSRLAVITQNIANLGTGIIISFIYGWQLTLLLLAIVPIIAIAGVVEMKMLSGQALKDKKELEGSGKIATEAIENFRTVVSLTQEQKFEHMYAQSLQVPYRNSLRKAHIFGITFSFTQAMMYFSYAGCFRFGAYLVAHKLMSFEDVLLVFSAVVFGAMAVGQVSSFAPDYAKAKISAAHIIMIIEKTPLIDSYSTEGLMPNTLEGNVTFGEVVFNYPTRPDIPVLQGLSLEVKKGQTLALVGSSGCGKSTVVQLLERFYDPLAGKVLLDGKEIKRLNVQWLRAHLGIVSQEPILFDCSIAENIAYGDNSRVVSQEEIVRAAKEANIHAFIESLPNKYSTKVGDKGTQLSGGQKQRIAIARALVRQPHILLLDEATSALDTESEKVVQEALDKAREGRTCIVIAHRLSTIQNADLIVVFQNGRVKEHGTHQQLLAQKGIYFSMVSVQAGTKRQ

SMILES: CC1CCCCN1CCOc1ccc2c3c(nccc13)-c1ccccc1C2=O (stereo not drawn)
- IC50 (HepG2): 4.88 µM
- Activity (MCF7 [1]): 59.5%
- inhibition in vivo at 10 mg/kg (MCF7 [2]): 7.2%
- Activity [3]: Non-Toxic
- Activity [4]: Non-Toxic
- Activity (MCF7 [5]): 53.27%
- Activity (MCF7 [6]): 31.38%
- Activity (NCI/ADR-RES [7]): Active
- Activity (Danio rerio): Active
- Activity [8]: Non-Toxic
- Activity (MCF7 [9]): 32.26%
- Activity (NCI/ADR-RES [10]): Active
- IC50 (NCI/ADR-RES [11]): 7.64 µM
- Activity [12]: Non-Toxic
- Activity (MCF7 [13]): Active
- Activity (MCF7 [14]): 5.4%
- Activity (NCI/ADR-RES [15]): Active
- Activity (NCI/ADR-RES [16]): Active
- Activity (Calf thymus DNA [17]): 33.9%
- Activity (MCF7 [18]): 49.45%
- OD (Calf thymus DNA [19]): 2.2 nm
- IC50 (MCF7 [20]): 1.32 µM
- IC50 (L02): 36.5 µM
- inhibition in vivo at 1 mg/kg (MCF7 [21]): 32.4%
- inhibition of growth at 3 µM (MCF7 [22]): 24.4%
- inhibition at 20 µM [23]: 18.1%
- Activity (NCI/ADR-RES [24]): 15.2%
- inhibition [25]: Active
